Consider 1 substance from patent EP2929785A1, “A PLA inhibitor for inhibition of fat absorption” (PAT GmbH, priority 2014, dated 2015).

The test concerns HepG2 cells. As to the kind of experiment: Fatty acid ([3H]oleate:albumin) influx in HepG2 cells. In kind it is cell-based, human.

Usually IC50 stands for the point on the concentration scale where inhibition reaches its midpoint. By Km is commonly meant the substrate concentration at which the rate is half of its maximum. As to “ursodeoxycholatelysophosphatidylethanolamide [UDCA-LPE]”, the concentration for half-maximal inhibition (IC50) (1-h treatment with increasing concentrations (Fig. 2A), read-out: inhibition of fatty acid influx (IC50)) turned out to be 47 µM. In addition, under “UDCA-LPE 100 µM (Fig. 1A)”, the “time until fatty acid influx reached a minimum” value is listed as 60 min. The “time after withdrawal until original fatty acid influx rate was restored” value (after UDCA-LPE withdrawal (Fig. 1A)) was 6 h. Also, the Km (pretreatment UDCA-LPE 100 µM, 1 h or MAFP 150 µM, 1 h) is 0.251 µM. In addition, the “Vmax of [3H]oleate influx” value (pretreatment UDCA-LPE 100 µM, 1 h or MAFP 150 µM, 1 h, control 61.80) stood at 28.43 nmol/mg protein/min.
